Where no end group is shown, it is not given here.
target: T1, Mannheimia haemolytica leukotoxin (Lkt) (Mannheimia haemolytica, UniProt P16535); test: not given; conditions: not given

Substance | fold better at blocking Lkt-induced cytotoxicity compared to the 13-mer R5 peptide
CPQLLLLAGLLAL [C5] | 8 fold

target: T1, Mannheimia haemolytica leukotoxin (Lkt); test: cell-based; conditions: IC50 (uM) aa 4-17

Substance | IC50
QCPQLLLLAGLLAL [Cattle Q4C5] | 2.6 ± 0.1 µM
QCPQVLLLAGLLGL [Eland Q4C5V8G16] | 1.6 ± 0.1 µM
RCPQLLLLAGLLAL [Cattle R4C5] | 14.5 ± 0.6 µM
RCPQVLLLAGLLGL [Eland R4C5V8G16] | 33.3 ± 1.3 µM

same assay, conditions: IC50 (uM) aa 5-17

Substance | IC50
CPQVLLLAGLLGL [Eland C5V8G16] | 0.5 ± 0.1 µM
RPQLLFLSGLLAL [Sheep R5F10S12] | 16.1 ± 1 µM
RPQLLLLAGLLAL [R5] | 12.1 ± 0.6 µM
RPQLLLLAGLLSL [Water Buffalo R5S16] | 13.9 ± 1 µM

same assay, conditions: IC50 (μM)

Substance | IC50
CPQLLLL [(B) 5-11] | 56.2 ± 5 µM
CPQLLLLA [(B) 5-12] | 51.5 ± 5.7 µM
CPQLLLLAG [(B) 5-13] | 27.8 ± 2 µM
CPQLLLLAGL [(B) 5-14] | 6.7 ± 0.5 µM
CPQLLLLAGLL [(B) 5-15] | 2.8 ± 0.2 µM
CPQLLLLAGLLA [(B) 5-16] | 0.6 ± 0.1 µM
CPQLLLLAGLLAL [C5] | 1.5 ± 0.1 µM
MLRQCPQLLLLAGLLALQSVLS [R3C5] | 6.8 ± 0.5 µM
MLRQRPQLLLLAGLLALQSVLS [R3R5] | 12.7 ± 0.6 µM
RPQLLLL [(A) 5-11] | 64.8 ± 7.4 µM
RPQLLLLA [(A) 5-12] | 81.8 ± 13.6 µM
RPQLLLLAG [(A) 5-13] | 75 ± 11.3 µM
RPQLLLLAGL [(A) 5-14] | 23.1 ± 1.3 µM
RPQLLLLAGLL [(A) 5-15] | 26.4 ± 1.7 µM
RPQLLLLAGLLA [(A) 5-16] | 18 ± 0.8 µM
RPQLLLLAGLLAL [R5] | 13.7 ± 0.6 µM

same assay, conditions: IC50, concentration of peptide needed to block 50% of Lkt-induced cytolysis of BL3 cells

Substance | IC50
MLHQRPQLLLLAGLLALQSVLS [H3R5] | 21.6 µM
MLRQCPQLLLLAGLLALQSVLS [R3C5] | 5.9 µM
MLRQRPQLLLLAGLLALQSVLS [R3R5] | 17.9 µM

Reference: publication PMC6406179 (F1000Research, 2018)
